Patent publication US12679845B2, “Crystal form of triazolopyridine-substituted indazole compound and preparation method therefor” (SHENZHEN OPTIMUM BIOLOGICAL TECHNOLOGY CO., LTD, priority 2021, dated 2026)

Columns and labels:
[1] = Hygroscopicity study by dynamic vapor sorption (DVS); type: physicochemical; conditions: 25° C.; for Hygroscopic weight gain (ΔW): 80% RH compared to 0% RH
Method: • Instrument model: TA Discovery TGA 5500 thermal gravimetric analyzer • Test method: The sample (2 to 5 mg) is placed in a platinum pot and tested under the protection of 25 mL/min dry nitrogen, and the method is: heating from room temperature to 350° C. at a rate of 10° C./min. Dynamic Vapor Sorption (DVS) Method of the Present Disclosure • Instrument model: SMS (Surface Measurement Systems) dynamic vapor sorption analyzer • Test conditions: The sample (10 to 15 mg) is taken and placed in a DVS sample dish for testing.
The detailed DVS parameters are as follows: • Temperature: 25° C. • Equilibrium: dm/dt=0.002%/min (minimum: 10 min, maximum: 180 min) • Drying: drying for 120 min under 0% RH RH (%) Test Gradient: • 10% (0% RH to 90% RH, 90% RH to 0% RH) • 5% (90% RH to 95% RH, 95% RH to 90% RH) RH (%) • RH (%) test gradient range: 0% to 95%
SMS DVS Advantage dynamic vapor sorption analyzer
10 to 15 mg of the crystal form S of the compound of formula (I) was taken and placed in a DVS sample disk for testing.

[2] = tested on: MMTV transcriptional activity (GR); test: MMTV_GR transcriptional activation activity assay, luciferase reporter gene in HeLa cells; type: cell-based
From the text: Experimental Example 2: In Vitro Assay of Compounds for Activation of MMTV Transcriptional Activity in Luciferase Reporter Gene Screening System
The mouse mammary tumor virus (MMTV) promoter contains specific binding sites that activate GR (GREs). To determine the activity of the compound, a reporter gene (luciferase) was inserted behind the MMTV promoter, and the structure was expressed in a stable manner in the genome of the HeLa cell line. The MMTV promoter was activated using the test compound to induce the luciferase expression, and its activity was detected by luminescence measurements.
The final DMSO experimental concentration was 0.1%.
MMTV_GR Transcriptional Activation Activity Assay
1) Cell inoculation: Fresh cells were inoculated into a 384-well white transparent bottom assay plate at 4×10^3 cells/30 μL/well and incubated in a 37° C., 5% CO2 incubator for 24 hours.
2) Compound preparation: The compound plate was configured before the start of the experiment. […]
4) 30 μL of Bright-Glo fluorescence assay reagent was transferred to the cell plate. […]
6) The fluorescence value was determined using an Envision plate reader. […]
The concentration curve of the test compound was plotted using the graphing software GraphPad Prism5, and the […] value was calculated.

[3] = In vivo PK study in Lewis female rats; conditions: rat, po 0.3 mg/kg, plasma
Method: The animals were weighed before administration, and the administration volume was calculated based on the body weight.
Approximately 0.2 mL of whole blood sample was collected at the specified time by jugular venipuncture (or other appropriate blood collection site), and the actual blood collection time was recorded in the experimental record. The acceptable error for the collection time point is ±1 minute within 1 hour after administration, and ±5% of the theoretical time for other time points. All blood samples were immediately transferred to labeled commercial centrifuge tubes containing K2-EDTA. After collection, the blood sample was centrifuged at 4° C., 3200 g for 10 minutes to aspirate the supernatant plasma, which was immediately placed in dry ice and then stored at −60° C. or lower for LC-MS/MS analysis.
The concentration of the test sample in plasma was determined by the LC-MS/MS bioanalytical method.

[4] = Solid stability test (XRPD) under high temperature, high humidity and strong light; type: physicochemical
From the text: For samples placed under high temperature and high humidity conditions, the vial was sealed with aluminum foil punched with small holes to ensure that the samples could fully contact with the ambient air; for samples placed under strong light conditions, the vial was sealed with a threaded cap. The samples placed under different conditions were sampled and detected (XRPD) on day 5, day 10, and month 3, and the results were compared with the initial results on day 0.

In the case of CC(C)[C@H](NC(=O)C(C)(F)F)[C@H](Oc1ccc2c(cnn2-c2ccc3nncn3c2)c1)c1ccccc1 [listing 1 of 2 here], the “Hygroscopic weight gain (ΔW)” value [1] is reported as 0.6%.

For CC(C)[C@H](NC(=O)C(C)(F)F)[C@H](Oc1ccc2c(cnn2-c2ccc3nncn3c2)c1)c1ccccc1 [listing 2 of 2 here], the EC50 ([2]; Homo sapiens, 20 to 24 h, read-out: TA (MMTV transcriptional activation activity) EC50) was 7.72 nM, the “TA (MMTV transcriptional activation activity) Effect” value ([2]; positive control 1000 nM Dexamethasone) was 63.86% and the AUC [3] was 3.15 µM·h. It also gave a Cmax [3] of 361 nM, a Tmax [3] of 4.5 h and a half-life [3] of 3.57 h. The Classification of hygroscopicity ([1]; 80% RH) was “slightly hygroscopic”, the “Hygroscopic weight gain (ΔW)” value ([1]; listed as crystal form Q of the compound of formula (I)) was 0.21% and the “Crystal form (XRPD)” value ([4]; Day 0, initial) was “Crystal form Q”. The “Crystal form (XRPD)” value ([4]; High humidity (room temperature/relative humidity: 92.5%, open), Day 5) was “Crystal form Q”, the “Crystal form (XRPD)” value ([4]; High humidity (room temperature/relative humidity: 92.5%, open), Day 10) was “Crystal form Q” and the “Crystal form (XRPD)” value ([4]; High humidity (room temperature/relative humidity: 92.5%, open), Month 3) was “Crystal form Q”. The “Crystal form (XRPD)” value ([4]; High temperature (60° C., open), Day 5) was “Crystal form Q”, the “Crystal form (XRPD)” value ([4]; High temperature (60° C., open), Day 10) was “Crystal form Q” and the “Crystal form (XRPD)” value ([4]; High temperature (60° C., open), Month 3) was “Crystal form Q”. The “Crystal form (XRPD)” value ([4]; Strong light (5000 lx, sealed), Day 5) was “Crystal form Q”, the “Crystal form (XRPD)” value ([4]; Strong light (5000 lx, sealed), Day 10) was “Crystal form Q” and the “Crystal form (XRPD)” value ([4]; Strong light (5000 lx, sealed), Month 3) was “Crystal form Q”.
